Assay results as given in patent US6613536B1, “Synthetic peptides and pharmaceutical compositions comprising them for the treatment of systemic lupus erythematosus” (Yeda Research and Development Co. Ltd., priority 1995, dated 2003).

Legend:
[1] = system: lymph node cells (LNC) of BALB/c and SJL mice; assay: In vivo inhibition of LNC proliferation to human mAb 16/6 Id; details: 200 μg/mouse i.v., vs not treated or p307
Procedure: BALB/c (FIG. 7a) and SJL (FIG. 7b) mice were immunized with human mAb 16/6 Id (1 μg/mouse in CFA i.d. in the hind footpads) and were injected (200 μg/mouse i.v. in PBS) with either peptide Ia or IIIa, respectively. Proliferation responses to mAb 16/6 Id were measured in LNC taken from immunized but not-treated mice (filled squares), from mice treated concomitantly with immunization with the control peptide p307 (half filled squares) or from mice treated with the appropriate CDR-based peptide Ia or IIIa (open squares). Proliferation responses were also shown to the immunodominant CDR-based peptide Ia or IIIa of LNC taken from 16/6 Id immunized non-treated mice (filled circles) or from mice treated with the appropriate CDR-based peptide Ia or IIIa (open circles). Results are expressed as mean CPM of triplicates.

SJL/J and BALB/c mice = assay: Anti-DNA antibodies in sera of immunized mice (ELISA); assay type: in vivo, mouse; details: for anti-DNA antibodies in sera: sera three months after booster; for levels of autoantibodies including anti-DNA and anti-NE antibodies: SJL mice immunized with IIIa, BALB/c mice immunized with Ia
Procedure: ELISA was utilized for the detection and quantitation of antibodies in experimental mice, and in humans. Polystyrene microtiter plates were coated with the relevant antigen or antibody, and sera dilutions or supernatants derived from the human or mouse cell cultures were added to the blocked plates. Specific binding was determined following the addition of peroxidase-conjugated antibodies against the appropriate immunoglobulin (Ig) (e.g. goat anti-human or goat anti-mouse peroxidase-conjugated antibodies) and the peroxidase substrate. Optical densities were read at 414 nm using an ELISA reader.
SJL/J and BALB/c female mice (6-8 week old) were immunized with 20 μg of peptide Ia or IIIa of the invention, or with a control peptide designated p278 (the peptide desinated Pep 278h described in published PCT International Application WO 94/03208) or with mAb 5G12 emulsified in complete Freund's adjuvant (CFA) in the foot pads. Three weeks later the mice received a booster injection with the same amount of peptide or mAb, in PBS. Thereafter, blood was drawn every two weeks. A fifth group included non-immunized mice.
ELISA was utilized to test the presence of the anti-DNA antibodies in the sera of the mice, as follows : Plates (Nunc) were coated for 90 min with 10 μg/ml of methylated BSA. Thereafter the plates were washed (all the washes were 3 times with PBS/0.05% Tween 20 (Sigma)) and incubated for an additional 90 min with 10 μg/ml of single-stranded DNA (calf thymus DNA (Sigma) that was heated for 15 min at 90° C. and fast-cooled). The plates were washed and blocked overnight with 1% ovalbumin in PBS (Sigma). Thereafter, the plates were washed and incubated with the sera of the mice diluted in the blocking reagent, followed by wash and incubation with 1:500 dilution of goat anti-mouse IgG (Fc receptor specific) polyclonal antibody conjugated to peroxidase. The plates were then washed and developed using ABTS substrate (Sigma), and the color was read using an ELISA reader at 414 nm. Results are expressed as mean OD of each mouse group (5 mice per group).

[2] = system: lymph node cells (LNC) of BALB/c and SJL mice; assay: In vivo inhibition of LNC proliferation responses to the CDR-based peptides; set-up: species or system mouse; details: LNC of treated mice; not shown
Procedure: BALB/c (FIG. 5a) and SJL (FIG. 5b) mice were immunized with peptides Ia and IIIa (20 μg/mouse in CFA i.d. in the hind footpads), respectively. The mice were also injected i.v. with 200 μg of the above peptides in PBS either 3 days prior to immunization (open squares), at the immunization day (open circles) or at both dates (open triangles). Ten days later the mice were sacrificed and their lymph nodes were removed and tested for proliferation in the presence of different concentrations of the immunizing peptide. Control groups were of LNC taken from mice that were immunized but not treated (filled squares), or treated with control peptide, p307 (half filled squares). The culture mixtures were incubated for 96 hours in enriched RPMI medium containing 1% normal mouse serum prior to addition of ^3H-thymidine. Sixteen hours later cells were harvested and radioactivity was counted. Results are expressed as mean CPM of triplicates.

[3] = system: peripheral blood lymphocytes (PBL); assay: IL-2 production by PBL of SLE patients and healthy controls; assay type: cell-based, human; details: sample at 24 hr
Procedure: PBL from human SLE patients and of the appropriate control donors (2×10^5/well) were cultured in microtiter plates in enriched medium containing 10% pooled AB sera in the presence of the human or mouse monoclonal 16/6 Id antibody, in the presence of peptides of the invention or in the presence of phytohemagglutinin (PHA). The rate of proliferation was evaluated by the incorporation of ^3[H]-thymidine in the cell culture. Non-relevant peptides were used as specificity controls. Antigen and mitogen-stimulated cytokine production was quantitated in the supernatants of the above cultures using either the cytokine-dependent lines or the appropriate pairs of antibodies in ELISA assays. Inhibition of the proliferative responses was performed in vitro by adding increasing doses of the tested peptide analogs into the proliferative culture mixtures.
PBL were isolated from blood of SLE patients or healthy controls using ficol gradient, and were incubated as in Example 13. A sample of 50 μl was removed 24 hr after the assay was started, and incubated in the presence of IL-2 sensitive cells (CTLD) for 24 hr, after which ^3H-thymidine was added for 16 hr, and the plates were harvested and counted on a beta counter.

[4] = system: antibodies in sera of SLE patients and healthy controls; assay: Antibodies in human sera binding coated peptides or mAb 5G12 (ELISA); details: 32 SLE patients in comparison to healthy controls; plates coated 10 μg/ml
Procedure: Human SLE patients (32 patients) were bled and their sera were tested by ELISA for their ability to bind the peptides Ia, IIa and IIIa, a control peptide p195-212 (a myasthogenic peptide described in PCT publication No. WO 94/00148) or mAb 5G12.
Detection of the antibodies was conducted on plates that were coated with 10 μg/ml of peptides Ia, IIa, IIIa or p195-212 or mAb 5G12, in PBS for 2 hr, washed and blocked with 1% ovalbumin in PBS for an additional 2 hr. ELISA was continued as described after blockage in Example 2 above, using goat anti-human IgG polyclonal antibody conjugated to peroxidase.

[5] = BALB/c mice immunized with 20 μg in CFA plus booster
[6] = SJL/J mice immunized with 20 μg in CFA plus booster

Substance	proliferative responses to mAb 16/6 Id of LNC ([1]; BALB/c mice immunized with human mAb 16/6 Id)	anti-DNA antibodies in sera (SJL/J and BALB/c mice; [5])	levels of autoantibodies including anti-DNA and anti-NE antibodies (SJL/J and BALB/c mice)	anti-DNA antibodies in sera (SJL/J and BALB/c mice; [6])	proliferative responses of the LNC to Con A (specificity) [2]	IL-2 production by PBL, actual number of responders ([3]; SLE patients)	IL-2 production by PBL, percentage of responders ([3]; SLE patients) [%]	IL-2 production by PBL, actual number of responders ([3]; healthy controls)	IL-2 production by PBL, percentage of responders ([3]; healthy controls) [%]	levels of serum antibodies that bind the coated peptide or mAb [4]	proliferative responses to mAb 16/6 Id of LNC ([1]; SJL mice immunized with human mAb 16/6 Id)
TGYYMQWVKQSPEKSLEWIG [peptide Ia]	inhibited	show presence of anti-DNA antibodies	elevated levels of autoantibodies	Low levels of anti-DNA antibodies	not inhibited	5/32	16	14/25	56	significantly higher levels of antibodies	
YYYCARFLWEPYAMDYWGQGS (YYCARFLWEPYAMDYWGQGS) [peptide IIIa, based on the CDR3 region of the VH chain of mAb 5G12]		did not show presence of anti-DNA antibodies	elevated levels of autoantibodies	high level of anti-DNA antibodies	not inhibited	5/32	16	16/25	64	significantly higher levels of antibodies	inhibited
